Tested on: R2(VC)
Experiment: cells
Parameters: species or system CHO sublines
Conditions: 96 h, read-out: >1000

IC50 [nM]	Compound
> 1000	Nc1nc2[nH]cc(CCCc3ccc(C(=O)N[C@@H](CCC(=O)O)C(=O)O)cc3)c2c(=O)[nH]1 [compound 7]
> 1000	Nc1nc2[nH]cc(CCCCc3ccc(C(=O)N[C@@H](CCC(=O)O)C(=O)O)cc3)c2c(=O)[nH]1 [compound 8]

— PMC3917155 (Journal of medicinal chemistry, 2013)
